Measured values taken from ChEMBL document CHEMBL5154823, “Amphiphilic cyclic peptide [W4KR5]-Antibiotics combinations as broad-spectrum antimicrobial agents” (Eur J Med Chem, 2022).
Active and inactive are the calls of the source. No cut-off for these calls is given here. Where a SMILES comes first, the peptide text is derived from it. Bridges are numbered along the chain shown (N, C = ends). [ ]: non-standard residue; d: D form. The star is where a group is joined. X1 = C[C@H](O)[C@H]1C(=O)N2C(C(=O)*)=C(S[C@@H]3CN[C@H](C(=O)N(C)C)C3)[C@@H](C)[C@H]12; X2 = CC[C@H](C)CCCCC(=O)*; Dab = NCC[C@H](N)C(=O)O

What was measured:
Staphylococcus aureus [1] = assay: Antibacterial activity against Staphylococcus aureus ATCC 29213 assessed as reduction in microbial growth incubated for 24 hrs by microbroth dilution method; assay type: functional
Staphylococcus aureus [2] = assay: Antibacterial activity against Methicillin resistant Staphylococcus aureus ATCC BAA -1556 assessed as reduction in microbial growth incubated for 24 hrs by microbroth dilution method; assay type: functional
Escherichia coli [3] = assay: Antibacterial activity against Escherichia coli ATCC 25922 assessed as reduction in microbial growth incubated for 24 hrs by microbroth dilution method; assay type: functional
Pseudomonas aeruginosa [4] = assay: Antibacterial activity against Pseudomonas aeruginosa ATCC 27883 assessed as reduction in microbial growth incubated for 24 hrs by microbroth dilution method; assay type: functional
Pseudomonas aeruginosa [5] = assay: Antibacterial activity against carbapenem resistant Pseudomonas aeruginosa ATCC BAA 1744 assessed as reduction in microbial growth incubated for 24 hrs by microbroth dilution method; assay type: functional
Klebsiella pneumoniae [6] = assay: Antibacterial activity against Klebsiella pneumoniae ATCC 13883 assessed as reduction in microbial growth incubated for 24 hrs by microbroth dilution method; assay type: functional
Staphylococcus aureus [7] = assay: Bactericidal activity against methicillin resistant Staphylococcus aureus ATCC BAA 1556 assessed as reduction in bacterial growth at MIC measured after 16 hrs by Time kill assay; assay type: functional, organism-based
Escherichia coli [8] = assay: Bactericidal activity against Escherichia coli ATCC BAA 2452 assessed as decrease of bacterial growth at MIC measured after 15 hrs by Time kill assay; assay type: functional, organism-based
Pseudomonas aeruginosa [9] = assay: Bactericidal activity against Pseudomonas aeruginosa ATCC BAA 1744 assessed as decrease of bacterial growth at MIC measured after 24 hrs by Time kill assay; assay type: functional, organism-based
Cell membrane [10] = assay: Induction of membrane disruption in Pseudomonas aeruginosa ATCC BAA 1744 assessed as increase in PI positive cells at MIC incubated for 2 hrs by Propidium iodide staining based FACS cytometry analysis relative to control
Cell membrane [11] = assay: Induction of membrane disruption in Staphylococcus aureus ATCC BAA -1556 assessed as increase in PI positive cells at MIC incubated for 2 hrs by Propidium iodide staining based FACS cytometry analysis relative to control
Cell membrane [12] = assay: Induction of membrane disruption in Pseudomonas aeruginosa ATCC BAA 1744 assessed as increase in PI positive cells at 4 times of MIC incubated for 2 hrs by Propidium iodide staining based FACS cytometry analysis relative to control; assay type: subcellular
Cell membrane [13] = assay: Induction of membrane disruption in Staphylococcus aureus ATCC BAA -1556 assessed as increase in PI positive cells at 4 times of MIC incubated for 2 hrs by Propidium iodide staining based FACS cytometry analysis relative to control; assay type: subcellular
HepaRG [14] = assay: Cytotoxicity against human HepaRG cells assessed as assessed as reduction in cell viability at 10 ug/ml incubated for 24 hrs by microplate reader analysis; assay type: toxicity, cell-based; settings: dose 10 µg/ml
HEK293 [15] = assay: Cytotoxicity against HEK293 cells assessed as effect on cell viability at 10 ug/ml incubated for 24 hrs by microplate reader analysis; assay type: toxicity, cell-based; settings: human, hek293, 24 h, dose 10 µg/ml
HEK293 [16] = assay: Cytotoxicity against HEK293 cells assessed as effect on cell viability at 10 to 200 ug/ml incubated for 24 hrs by microplate reader analysis; assay type: toxicity, cell-based; settings: human, hek293, 24 h, dose 10-200 µg/ml
[17] = Hemolytic activity in human Red blood cell incubated for 2 hrs by spectrophotometric analysis; assay type: toxicity, cell-based, Erythrocyte; settings: red blood cells (erythrocytes)
Klebsiella pneumoniae [18] = assay: Antibacterial activity against imipenem resistant Klebsiella pneumoniae ATCC BAA 1705 assessed as reduction in microbial growth incubated for 24 hrs by microbroth dilution method; assay type: functional
Escherichia coli [19] = assay: Antibacterial activity against carbapenem and NDM-1 positive resistant Escherichia coli ATCC BAA 2452 assessed as reduction in microbial growth incubated for 24 hrs by microbroth dilution method; assay type: functional
[20] = Cytotoxicity against HEK293 cells assessed as effect on cell viability at 10 to 25 ug/ml incubated for 24 hrs by microplate reader analysis relative to control; assay type: toxicity, cell-based; settings: human, at 10 to 25 µg/mL, dose 10-25 µg/ml, read-out: Activity
HepaRG [21] = assay: Cytotoxicity against human HepaRG cells assessed as assessed as reduction in cell viability at 50 to 150 ug/ml incubated for 24 hrs by microplate reader analysis relative to control; assay type: toxicity, cell-based; settings: at 50 to 150 µg/mL, dose 50-150 µg/ml

C[C@@H](O)[C@H]1C(=O)N2C(C(=O)O)=C(S[C@@H]3CN[C@H](C(=O)N(C)C)C3)[C@H](C)[C@H]12 [MEROPENEM]
MIC (Staphylococcus aureus [1]): 2 µg/mL | MIC (Staphylococcus aureus [2]): 2 µg/mL | MIC (Escherichia coli [3]): 1 µg/mL | MIC (Pseudomonas aeruginosa [4]): 1 µg/mL | MIC (Pseudomonas aeruginosa [5]): 8 µg/mL | MIC (Klebsiella pneumoniae [6]): 1 µg/mL | Activity (Staphylococcus aureus [7]): Active | Activity (Escherichia coli [8]): Active | Activity (Pseudomonas aeruginosa [9]): Active | Activity (Cell membrane [10]): 14.7% | Activity (Cell membrane [11]): 12.2% | Activity (Cell membrane [12]): 22.1% | Activity (Cell membrane [13]): 17.2% | Activity (HepaRG [14]): Non-Toxic | Activity (HEK293 [15]): Non-Toxic | Activity (HEK293 [16]): Non-Toxic | HC50 at 2 h [17]: > 500 µg/mL

NC[C@H]1O[C@H](O[C@H]2[C@H](O)[C@@H](O[C@H]3O[C@H](CO)[C@@H](O)[C@H](N)[C@H]3O)[C@H](N)C[C@@H]2N)[C@H](O)[C@@H](O)[C@@H]1O [KANAMYCIN]
MIC (Staphylococcus aureus [2]): > 128 µg/mL | MIC (Escherichia coli [3]): 32 µg/mL | MIC (Klebsiella pneumoniae [18]): 64 µg/mL | MIC (Pseudomonas aeruginosa [4]): > 128 µg/mL

NC[C@H]1O[C@H](O[C@H]2[C@H](O)[C@@H](O[C@H]3O[C@H](CO)[C@@H](O)[C@H](N)[C@H]3O)[C@H](N)C[C@@H]2N)[C@H](N)C[C@@H]1O [TOBRAMYCIN]
MIC (Staphylococcus aureus [2]): 0.5 µg/mL | MIC (Escherichia coli [3]): 8 µg/mL | MIC (Klebsiella pneumoniae [18]): 16 µg/mL | MIC (Pseudomonas aeruginosa [4]): 0.5 µg/mL

CC[C@H](C)CCCCC(=O)N[C@@H](CCN)C(=O)N[C@H](C(=O)N[C@@H](CCN)C(=O)N[C@H]1CCNC(=O)[C@H]([C@@H](C)O)NC(=O)[C@H](CCN)NC(=O)[C@H](CCN)NC(=O)[C@H](CC(C)C)NC(=O)[C@@H](Cc2ccccc2)NC(=O)[C@H](CCN)NC1=O)[C@@H](C)O (X2-[Dab]T[Dab][Dab][Dab][dF]L[Dab][Dab]T; lactam 4-C)
MIC (Staphylococcus aureus [2]): 64 µg/mL | MIC (Escherichia coli [3]): 2 µg/mL | MIC (Klebsiella pneumoniae [18]): 1 µg/mL | MIC (Pseudomonas aeruginosa [4]): 1 µg/mL

CCC[C@@H]1C[C@@H](C(=O)N[C@@H]([C@H]2O[C@H](SC)[C@H](O)[C@@H](O)[C@H]2O)[C@H](C)Cl)N(C)C1 [CLINDAMYCIN]
MIC (Klebsiella pneumoniae [18]): 256 µg/mL | MIC (Pseudomonas aeruginosa [4]): > 128 µg/mL

CN(C)[C@@H]1C(O)=C(C(N)=O)C(=O)[C@@]2(O)C(O)=C3C(=O)c4c(O)cccc4[C@@](C)(O)[C@H]3C[C@@H]12 [TETRACYCLINE]
MIC (Staphylococcus aureus [2]): 0.25 µg/mL | MIC (Escherichia coli [3]): 8 µg/mL | MIC (Klebsiella pneumoniae [18]): 16 µg/mL | MIC (Pseudomonas aeruginosa [4]): 32 µg/mL

O=C(O)c1cn(C2CC2)c2cc(N3CCNCC3)c(F)cc2c1=O [CIPROFLOXACIN]
MIC (Escherichia coli [3]): 64 µg/mL

CCCCCCCCCC(=O)N[C@@H](Cc1c[nH]c2ccccc12)C(=O)N[C@H](CC(N)=O)C(=O)N[C@@H](CC(=O)O)C(=O)N[C@@H]1C(=O)NCC(=O)N[C@@H](CCCN)C(=O)N[C@@H](CC(=O)O)C(=O)N[C@H](C)C(=O)N[C@@H](CC(=O)O)C(=O)NCC(=O)N[C@H](CO)C(=O)N[C@@H]([C@H](C)CC(=O)O)C(=O)N[C@@H](CC(=O)c2ccccc2N)C(=O)O[C@@H]1C
MIC (Escherichia coli [3]): > 128 µg/mL | MIC (Klebsiella pneumoniae [18]): 256 µg/mL | MIC (Pseudomonas aeruginosa [4]): > 128 µg/mL

CN[C@H](CC(C)C)C(=O)N[C@H]1C(=O)N[C@@H](CC(N)=O)C(=O)N[C@H]2C(=O)N[C@H]3C(=O)N[C@H](C(=O)N[C@H](C(=O)O)c4cc(O)cc(O)c4-c4cc3ccc4O)[C@H](O)c3ccc(c(Cl)c3)Oc3cc2cc(c3O[C@@H]2O[C@H](CO)[C@@H](O)[C@H](O)[C@H]2O[C@H]2C[C@](C)(N)[C@H](O)[C@H](C)O2)Oc2ccc(cc2Cl)[C@H]1O [VANCOMYCIN]
MIC (Escherichia coli [3]): 256 µg/mL | MIC (Klebsiella pneumoniae [18]): 256 µg/mL | MIC (Pseudomonas aeruginosa [4]): 256 µg/mL

C[C@H]1COc2c(N3CCN(C)CC3)c(F)cc3c(=O)c(C(=O)O)cn1c23.C[C@H]1COc2c(N3CCN(C)CC3)c(F)cc3c(=O)c(C(=O)O)cn1c23.O [LEVOFLOXACIN]
MIC (Staphylococcus aureus [2]): > 128 µg/mL | MIC (Escherichia coli [3]): 64 µg/mL | MIC (Klebsiella pneumoniae [18]): 64 µg/mL

C[C@H](O)[C@H]1C(=O)N2C(C(=O)NCCCC[C@@H]3NC(=O)[C@H](CCCNC(=N)N)NC(=O)[C@H](CCCNC(=N)N)NC(=O)[C@H](CCCNC(=N)N)NC(=O)[C@H](CCCNC(=N)N)NC(=O)[C@H](CCCNC(=N)N)NC(=O)[C@H](Cc4c[nH]c5ccccc45)NC(=O)[C@H](Cc4c[nH]c5ccccc45)NC(=O)[C@H](Cc4c[nH]c5ccccc45)NC(=O)[C@H](Cc4c[nH]c5ccccc45)NC3=O)=C(S[C@@H]3CN[C@H](C(=O)N(C)C)C3)[C@@H](C)[C@H]12 (cyclo(K(X1)WWWWRRRRR))
MIC (Staphylococcus aureus [1]): 2 µg/mL | MIC (Staphylococcus aureus [2]): 4 µg/mL | MIC (Escherichia coli [3]): 4 µg/mL | MIC (Escherichia coli [19]): 8 µg/mL | MIC (Klebsiella pneumoniae [18]): 16 µg/mL | MIC (Pseudomonas aeruginosa [4]): 16 µg/mL | MIC (Pseudomonas aeruginosa [5]): 16 µg/mL | MIC (Klebsiella pneumoniae [6]): 4 µg/mL | Activity (Cell membrane [12]): 26.4% | Activity (Cell membrane [13]): 29.6% | Activity (HepaRG [14]): Non-Toxic | Activity (HEK293 [15]): Non-Toxic | viability at 24 h [20]: 90% | Activity (HepaRG [21]): 69% | HC50 at 2 h [17]: 255 µg/mL
